Laboratory results as given in the NIST ThermoML archive (doi:10.1016/j.jct.2018.08.005).
Numbers after ± are expanded uncertainties.

Assay: molar heat capacity at constant pressure; xn = mol fraction of the nth substance listed
Settings: 100 kPa, Liquid, DSC

CCOC(F)(C(F)(F)C(F)(F)C(F)(F)F)C(F)(C(F)(F)F)C(F)(F)F (stereo not given) [2-trifluoromethyl-3-ethoxydodecafluorohexane] + CC(C)OC(C)C
molar heat capacity at constant pressure [J/K/mol]
Settings | x1 = 0.25 | x1 = 0.375 | x1 = 0.5 | x1 = 0.625 | x1 = 0.75 | x1 = 1
290.5 K | 277.26 ± 16 | 310.54 ± 18 | 342.56 ± 20 | 375.58 ± 21 | 407.39 ± 23 | –
295.44 K | 279.61 ± 16 | 312.95 ± 18 | 345.14 ± 20 | 378.55 ± 22 | 410.41 ± 24 | –
297.91 K | – | – | – | – | – | 466.29 ± 27
300.38 K | 281.77 ± 16 | 315.36 ± 18 | 347.98 ± 20 | 381.52 ± 22 | 413.77 ± 24 | –
305.32 K | 284.47 ± 16 | 317.99 ± 18 | 350.3 ± 20 | 384.2 ± 22 | 416.46 ± 24 | –
307.79 K | – | – | – | – | – | 472.92 ± 27
310.26 K | 287.71 ± 16 | 320.4 ± 18 | 353.14 ± 20 | 387.17 ± 22 | 419.82 ± 24 | –
315.2 K | 290.42 ± 17 | 322.81 ± 18 | 355.98 ± 20 | 390.14 ± 22 | 422.85 ± 24 | –
317.66 K | – | – | – | – | – | 479.54 ± 27
320.13 K | 293.12 ± 17 | 325.66 ± 19 | 358.82 ± 21 | 393.11 ± 23 | 425.87 ± 25 | –
325.07 K | 295.64 ± 17 | 328.29 ± 19 | 361.66 ± 21 | 396.08 ± 23 | 428.9 ± 25 | –
327.54 K | – | – | – | – | – | 486.58 ± 28
330.01 K | 298.16 ± 17 | 330.92 ± 19 | 364.5 ± 21 | 399.35 ± 23 | 432.26 ± 25 | –
334.95 K | 300.69 ± 17 | 333.77 ± 19 | 367.08 ± 21 | 402.32 ± 23 | 434.61 ± 25 | –
337.42 K | – | – | – | – | – | 494.03 ± 28
339.89 K | 303.21 ± 17 | 336.4 ± 19 | 369.66 ± 21 | 405.29 ± 23 | 437.97 ± 25 | –
347.29 K | – | – | – | – | – | 500.66 ± 29
357.17 K | – | – | – | – | – | 508.53 ± 29
367.05 K | – | – | – | – | – | 517.23 ± 29
376.92 K | – | – | – | – | – | 523.85 ± 30
386.8 K | – | – | – | – | – | 531.72 ± 30
